Results published in US20060275826A1, “Artificial antibody comprising complementary peptide” (priority 2003, published 2006).
No end group written: not given here.

Columns and labels:
[1] = target: T1, reverse transcriptase (RT) of human immunodeficiency virus-1 (HIV-1) (Human immunodeficiency virus type 1 group M subtype B, UniProt P04585); test: HIV-RT activity assay (primer tRNALys3 elongation on viral genome RNA, autoradiography); assay type: biochemical; conditions: for IC50: 50% suppression concentrations against RT, 50 ng HIV-RT, 37° C., 15 minutes; for suppressing activity against RT activity: result in words
T1 construct: reverse transcriptase (abbreviated as RT hereinafter)
From the text: Complementary peptides against peptides at each site of reverse transcriptase (abbreviated as RT hereinafter) of a pathogenic virus of AIDS, human immunodeficiency virus-1 (HIV-1), were automatically designed using an analysis program (MIMETIC), and the peptides shown in Table 1 were designed. The designed peptides were synthesized by a conventional solid phase method by allowing 9-fluorenylmethoxycarbonyl (Fmoc) amino acids to sequentially bind using a peptide synthesizer (trade name: AMS 422 Multiple Peptide Synthesizer, manufactured by ABiMED Co.). The synthesized peptide was released from the solid support by a conventional method, and protective groups were removed. The peptide obtained was recovered by ether precipitation, and was purified with reversed phase HPLC after removing ether by drying. A culture supernatant of PLB cells (established human lymphocyte strain) infected with HIV-1 was placed on a top layer of layered 65% and 15% sucrose solutions in a ultracentrifuge tube, and HIV-1 particles were retrieved by ultracentrifugation for 1 hour at 26,500 rpm. Virus RNA was extracted by a guanidine isothiocyanate method (Chomezynski, P. and Sacchi, N., RNA Isolation from Cultured cells, Analytical Biochemistry, 162: 156-159, 1987), and the extract was used by dissolving in 5 mM Tris buffer (pH 7.5). The amount of the whole length virus genome RNA contained in the total RNA sample was quantified according to a conventional ribonuclease protection method (Kaye, J. F. et al., Cis-acting Sequences Involved in Human Immunodeficiency Virus Type 1 RNA Packaging, J. Virol, 69: 6588-6592, 1995; and Huang, Y. et al., The Role of Nucleocapsid and U5 stem/A rich Loop Sequences in tRNA (3Lys) Genomic Placement and Initiation of Reverse Transcription in Human Immunodeficiency Virus Type 1, J. Virol., 72: 3907-3915, 1997). The virus genome binds to tRNA^Lys3 in the cell, and can be used for measuring RT activity. The RNA genome of about 5×10^7 molecules was allowed to react with 50 ng of HIV-RT, 10 units of […] and dNTP's (deoxynucleic acid) at 37° C. for 15 minutes in 20 μl of RTbuffer (50 mMTris-HCl, pH 7.5, 60 mM KCl, 3 mM MgCl2 and 10 mM DTT). The sequence at the tip of the molecule comprises six bases of CTGCTA. One base was added to tRNA^Lys3 using ^32P-dCTP with a radioactivity of 5 μci, and 6 bases were further added by allowing 0.2 mM of dCTP, 0.2 mM of dTTP, 5 μCi of ^32p-dGTP and 0.05 mM of ddATP to react. The elongated primer was retrieved by ethanol precipitation, and was analyzed by auto-radiography through electrophoresis on 6% polyacrylamide gel containing 7 M urea.

[2] = target: T2, HIV transcriptase (HIV-RT) (Human immunodeficiency virus type 1 group M subtype B, UniProt P04585); test: Sandwich ELISA detecting HIV-RT with complementary peptides as artificial antibody peptides; assay type: binding; conditions: wells coated with ESLA 2340, detection with biotin-labeled TLMA 2993 and peroxidase-labeled avidin
T2 construct: reverse transcriptase (abbreviated as RT hereinafter)
Protocol: Wells of a 96 well plate were coated with ESLA 2340 in advance. After adding a diluted solution of HIV-RT in each well and allowing the plate to stand overnight at 4° C., the plate was washed and biotin-labeled TLMA 2993 was added to each well. The plate was allowed to stand for 1 hour at room temperature. After washing the plate again, peroxidase-labeled avidin was added to allow it to react at room temperature for 1 hour. After washing the plate to remove unreacted avidin, a color development reaction was performed by a conventional method at room temperature by adding a color developing reagent of peroxidase.

[3] = target: T3, Pro-carboxypeptidase R (ProCPR) (Homo sapiens, UniProt Q96IY4); test: Activation of ProCPR to CPR by thrombin-thrombomodulin (T/TM) complex, hippuryl-L-arginine substrate; assay type: biochemical; conditions: 1 μM of peptide
T3 sequence (Q96IY4 23-423 limits assumed): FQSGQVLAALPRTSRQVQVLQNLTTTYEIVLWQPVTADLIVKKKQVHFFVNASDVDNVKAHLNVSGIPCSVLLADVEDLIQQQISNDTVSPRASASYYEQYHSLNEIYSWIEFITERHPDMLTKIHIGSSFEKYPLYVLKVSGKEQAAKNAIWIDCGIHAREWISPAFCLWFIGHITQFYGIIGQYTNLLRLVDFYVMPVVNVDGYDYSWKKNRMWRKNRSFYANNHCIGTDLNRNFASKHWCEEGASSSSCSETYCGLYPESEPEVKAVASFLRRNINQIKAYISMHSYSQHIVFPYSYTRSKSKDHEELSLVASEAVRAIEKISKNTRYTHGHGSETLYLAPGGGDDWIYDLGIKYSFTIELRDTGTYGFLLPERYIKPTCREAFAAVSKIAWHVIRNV
From the text: Pro-carboxypeptidase R (abbreviated as ProCPR hereinafter) is converted into active carboxypeptidase R (abbreviated as CPR hereinafter) by trimming a sequence from an amino terminal to arginine 92 with a trypsin-like enzyme such as thrombin and plasmin. A complementary peptide corresponding to the amino acid sequence comprising 30, 24, 20, 15 or 11 amino acids from amino acid 87 counted from the amino terminal of the ProCPR was automatically designed using the analysis program MIMETIC of the invention, and the peptides shown in Table 2 were designed. An action on the activation reaction of ProCPR by a thrombin-thrombomodulin complex (abbreviated as T/TM complex hereinafter) was analyzed with respect to the peptides (the peptides in notes (1) and (2) in Table 2) comprising 20 and 15 amino acids of the complementary peptides described above. The designed peptides were synthesized by a conventional solid state method by which 9-fluorenylmethoxycarbonyl (Fmoc) amino acids are sequentially linked using a peptide synthesizer (trade name: AMS 422 Multiple Peptide Synthesizer, manufactured by ABiMED Co.) The synthesized peptide was released by a conventional method, and protecting groups were removed. The peptide obtained was retrieved by ether precipitation, and was purified by reversed phase HPLC after removing ether by drying. The purified peptides comprising 20 and 15 amino acids were allowed to react with ProCPR for 10 minutes at room temperature, followed by allowing the T/TM complex to react. After a reaction for 45 minutes at 37° C. by adding hippuril-L-arginine which is substrate of CPR, free hippuric acid was measured according to a reported method (Komura, H., et al., Effect of Anticoagulants in Colorimetric Assay for Basic Carboxypeptidase, Microbiol. Immunol., 46: 115-117, 2002). When 20-mer peptide and 15-mer peptide were added, activation of ProCPR to CPR with the T/TM complex was suppressed by adding 1 μM of respective peptides. […]

ProCPR [4] = target: T4, ProCPR (Homo sapiens, UniProt Q96IY4); test: Surface plasmon resonance analyzer (Biacore) reactivity to ProCPR; assay type: binding
T4 sequence (Q96IY4 23-423 limits assumed): T3 sequence (Q96IY4 23-423 limits assumed)

ProCPR [5] = target: T5, ProCPR (Homo sapiens, UniProt Q96IY4); test: Plate ELISA: VGG-coated plate, human plasma containing ProCPR, biotin-labeled 10G1 antibody; assay type: binding; conditions: plate coated with VGG, diluted human plasma
T5 construct: diluted human plasma containing ProCPR; from tissue; host or cells: human plasma
T5 sequence (Q96IY4 115-423): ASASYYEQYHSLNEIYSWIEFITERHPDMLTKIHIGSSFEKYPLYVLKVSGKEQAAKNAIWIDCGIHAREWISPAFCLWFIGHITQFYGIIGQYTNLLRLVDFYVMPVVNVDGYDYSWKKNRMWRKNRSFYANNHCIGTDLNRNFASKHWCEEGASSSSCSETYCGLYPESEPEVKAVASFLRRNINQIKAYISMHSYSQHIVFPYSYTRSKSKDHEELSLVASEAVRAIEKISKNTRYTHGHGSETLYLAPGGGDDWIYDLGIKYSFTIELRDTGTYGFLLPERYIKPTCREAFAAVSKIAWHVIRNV
Protocol: After coating the plate with VGG and washing the plate, diluted human plasma containing ProCPR was added to the plate and was allowed to react for 1 hour at room temperature. After removing excess plasma by washing the plate, 10G1 as a […] was added followed by allowing it to react for 1 hour at room temperature. Excess 10G1 antibody was removed by washing the plate, and remaining 10G1 antibody was allowed to react by adding peroxidase-labeled avidin. After removing unreacted avidin by washing, the reaction solution was made to develop a color by a conventional method depending on the strength of the enzyme reaction of peroxidase by adding a peroxidase color development reagent, and the intensity of the color was measured with a plate reader.

Row | Sequence | IC50 [1] | suppressing activity against RT activity [1] | color development depending on concentration of HIV-RT (sandwich ELISA) [2] | suppression of activation of ProCPR to CPR with the T/TM complex [3] | other results
1 | ESLALYKSLQQSEMLLELEL [ESLA2340] | 17 µM | confirmed to suppress the activity of transcriptase | A color was developed depending on the concentration of HIV-RT | – | –
2 | PSTWPTFLKFQLK [PSTW1594, PSTWPTFLKFQLK] | 15 µM | – | – | – | –
3 | TLMALELKGKLLLAGLAPSAFLPLSFPEL [TLMA2993] | 15 µM | confirmed to suppress the activity of transcriptase | A color was developed depending on the concentration of HIV-RT | – | –
4 | VGGRRTRARRVLLLVLTETH [complementary (mimetic) peptide to ProCPR positions 87-106] | – | – | – | confirmed to suppress activation of ProCPR | suppression of activation of ProCPR to CPR with the T/TM complex ([3]; listed as 20-mer peptide): suppressed; reactivity to ProCPR by surface plasmon resonance (ProCPR [4]): confirmed to be reactive to ProCPR; color development depending on concentration of plasma containing ProCPR (ELISA) (ProCPR [5]): color was developed depending on the concentration of the plasma
5 | VSRGRRRDRRILMII [15-mer peptide, complementary (mimetic) peptide to ProCPR positions 87-101] | – | – | – | suppressed | –
